In PubChem BioAssay (NCI):
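Test compounds were applied to cells in 96-well plates for 48 hours at 5 doses. TGI denotes the concentration required for complete inhibition of growth.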

Assays:
Test in all cases: NCI anticancer screen, dose series, 48 h
786-0 renal = test system: 786-0 renal
A498 renal = test system: A498 renal
A549 NSCLC = test system: A549 NSCLC
ACHN renal = test system: ACHN renal
BT-549 breast = test system: BT-549 breast
CAKI-1 renal = test system: CAKI-1 renal
CCRF-CEM leukemia = test system: CCRF-CEM leukemia
COLO 205 colon = test system: COLO 205 colon
DU-145 prostate = test system: DU-145 prostate
EKVX NSCLC = test system: EKVX NSCLC
HCC-2998 colon = test system: HCC-2998 colon
HCT-116 colon = test system: HCT-116 colon
HCT-15 colon = test system: HCT-15 colon
HL-60(TB) leukemia = test system: HL-60(TB) leukemia
HOP-62 NSCLC = test system: HOP-62 NSCLC
HOP-92 NSCLC = test system: HOP-92 NSCLC
HS 578T breast = test system: HS 578T breast
HT29 colon = test system: HT29 colon
IGROV1 ovarian = test system: IGROV1 ovarian
K-562 leukemia = test system: K-562 leukemia
KM12 colon = test system: KM12 colon
LOX IMVI melanoma = test system: LOX IMVI melanoma
M14 melanoma = test system: M14 melanoma
MALME-3M melanoma = test system: MALME-3M melanoma
MCF7 breast = test system: MCF7 breast
MDA-MB-231 breast = test system: MDA-MB-231 breast
MDA-MB-435 = test system: MDA-MB-435
MDA-N = test system: MDA-N
MOLT-4 leukemia = test system: MOLT-4 leukemia
NCI-H226 lung = test system: NCI-H226 lung
NCI-H23 lung = test system: NCI-H23 lung
NCI-H460 lung = test system: NCI-H460 lung
NCI-H522 lung = test system: NCI-H522 lung
NCI/ADR-RES ovarian = test system: NCI/ADR-RES ovarian
OVCAR-3 ovarian = test system: OVCAR-3 ovarian
OVCAR-4 ovarian = test system: OVCAR-4 ovarian
OVCAR-5 ovarian = test system: OVCAR-5 ovarian
OVCAR-8 ovarian = test system: OVCAR-8 ovarian
PC-3 prostate = test system: PC-3 prostate
RPMI-8226 leukemia = test system: RPMI-8226 leukemia
RXF 393 renal = test system: RXF 393 renal
SF-268 CNS = test system: SF-268 CNS
SF-295 CNS = test system: SF-295 CNS
SF-539 CNS = test system: SF-539 CNS
SK-MEL-2 melanoma = test system: SK-MEL-2 melanoma
SK-MEL-28 melanoma = test system: SK-MEL-28 melanoma
SK-MEL-5 melanoma = test system: SK-MEL-5 melanoma
SK-OV-3 ovarian = test system: SK-OV-3 ovarian
SN12C renal = test system: SN12C renal
SNB-19 CNS = test system: SNB-19 CNS
SNB-75 CNS = test system: SNB-75 CNS
SR leukemia = test system: SR leukemia
SW-620 colon = test system: SW-620 colon
T-47D breast = test system: T-47D breast
TK-10 renal = test system: TK-10 renal
U251 CNS = test system: U251 CNS
UACC-257 melanoma = test system: UACC-257 melanoma
UACC-62 melanoma = test system: UACC-62 melanoma
UO-31 renal = test system: UO-31 renal

O=C1C2=C(CC3=C(C2)CS(=O)(=O)C3)C(=O)C2=C1CC1=C(C2)CS(=O)(=O)C1
TGI (786-0 renal): 40.6 µM
TGI (A498 renal): > 90.9 µM
TGI (A549 NSCLC): > 100 µM
TGI (ACHN renal): > 66.2 µM
TGI (BT-549 breast): 44.8 µM
TGI (CAKI-1 renal): > 69.5 µM
TGI (CCRF-CEM leukemia): 34.3 µM
TGI (COLO 205 colon): 35.7 µM
TGI (DU-145 prostate): > 87 µM
TGI (EKVX NSCLC): > 62.7 µM
TGI (HCC-2998 colon): > 51.6 µM
TGI (HCT-116 colon): 28.5 µM
TGI (HCT-15 colon): > 100 µM
TGI (HL-60(TB) leukemia): 22 µM
TGI (HOP-62 NSCLC): 37.3 µM
TGI (HOP-92 NSCLC): > 77.7 µM
TGI (HS 578T breast): > 60.6 µM
TGI (HT29 colon): 41.4 µM
TGI (IGROV1 ovarian): 36.5 µM
TGI (K-562 leukemia): > 39.1 µM
TGI (KM12 colon): > 40.8 µM
TGI (LOX IMVI melanoma): > 59.9 µM
TGI (M14 melanoma): > 54.9 µM
TGI (MALME-3M melanoma): 19.2 µM
TGI (MCF7 breast): 35.1 µM
TGI (MDA-MB-231 breast): 27.3 µM
TGI (MDA-MB-435): 21.1 µM
TGI (MDA-N): 20.8 µM
TGI (MOLT-4 leukemia): > 65.6 µM
TGI (NCI-H226 lung): > 59.7 µM
TGI (NCI-H23 lung): 48.4 µM
TGI (NCI-H460 lung): > 100 µM
TGI (NCI-H522 lung): 22.2 µM
TGI (NCI/ADR-RES ovarian): 66.5 µM
TGI (OVCAR-3 ovarian): 9.03 µM
TGI (OVCAR-4 ovarian): > 33.1 µM
TGI (OVCAR-5 ovarian): > 78.3 µM
TGI (OVCAR-8 ovarian): > 59.7 µM
TGI (PC-3 prostate): 51.6 µM
TGI (RPMI-8226 leukemia): 55.5 µM
TGI (RXF 393 renal): 49.6 µM
TGI (SF-268 CNS): > 47.7 µM
TGI (SF-295 CNS): 44.9 µM
TGI (SF-539 CNS): > 75.2 µM
TGI (SK-MEL-2 melanoma): > 75.2 µM
TGI (SK-MEL-28 melanoma): > 70 µM
TGI (SK-MEL-5 melanoma): 37.3 µM
TGI (SK-OV-3 ovarian): > 73.2 µM
TGI (SN12C renal): 30.2 µM
TGI (SNB-19 CNS): 35.5 µM
TGI (SNB-75 CNS): > 41 µM
TGI (SR leukemia): 18.6 µM
TGI (SW-620 colon): 47.1 µM
TGI (T-47D breast): 8.66 µM
TGI (TK-10 renal): > 66.9 µM
TGI (U251 CNS): 31 µM
TGI (UACC-257 melanoma): > 61.2 µM
TGI (UACC-62 melanoma): 37.1 µM
TGI (UO-31 renal): > 63.4 µM

CC1(C)Cc2nc3c(cc2C(=O)C1C=N/C(C#N)=C(\N)C#N)C(=O)C(C=N/C(C#N)=C(\N)C#N)C(C)(C)C3 (stereo not given)
TGI (786-0 renal): 3.47 µM
TGI (A498 renal): 15.4 µM
TGI (A549 NSCLC): 8.31 µM
TGI (ACHN renal): 5.87 µM
TGI (BT-549 breast): 5.51 µM
TGI (CAKI-1 renal): 3.54 µM
TGI (CCRF-CEM leukemia): > 100 µM
TGI (COLO 205 colon): 7.04 µM
TGI (DU-145 prostate): 8.44 µM
TGI (EKVX NSCLC): 6.01 µM
TGI (HCC-2998 colon): 10.3 µM
TGI (HCT-116 colon): 2.96 µM
TGI (HCT-15 colon): 4.48 µM
TGI (HL-60(TB) leukemia): 10.1 µM
TGI (HOP-62 NSCLC): 6.94 µM
TGI (HOP-92 NSCLC): 3.33 µM
TGI (HS 578T breast): 3.32 µM
TGI (HT29 colon): 10.9 µM
TGI (IGROV1 ovarian): 3.56 µM
TGI (K-562 leukemia): > 100 µM
TGI (KM12 colon): 3.38 µM
TGI (LOX IMVI melanoma): 5.7 µM
TGI (M14 melanoma): 3.05 µM
TGI (MALME-3M melanoma): 2.84 µM
TGI (MCF7 breast): 6.23 µM
TGI (MDA-MB-231 breast): 22.1 µM
TGI (MDA-MB-435): 3.48 µM
TGI (MDA-N): 11.8 µM
TGI (MOLT-4 leukemia): > 100 µM
TGI (NCI-H226 lung): 12.7 µM
TGI (NCI-H23 lung): 7.36 µM
TGI (NCI-H460 lung): 8.21 µM
TGI (NCI-H522 lung): 2.3 µM
TGI (NCI/ADR-RES ovarian): > 42 µM
TGI (OVCAR-3 ovarian): 11 µM
TGI (OVCAR-4 ovarian): > 100 µM
TGI (OVCAR-5 ovarian): 5.48 µM
TGI (OVCAR-8 ovarian): 8.71 µM
TGI (PC-3 prostate): 5.35 µM
TGI (RPMI-8226 leukemia): > 27.7 µM
TGI (RXF 393 renal): 3.04 µM
TGI (SF-268 CNS): 3.39 µM
TGI (SF-295 CNS): 7.56 µM
TGI (SF-539 CNS): 2.41 µM
TGI (SK-MEL-2 melanoma): 4.69 µM
TGI (SK-MEL-28 melanoma): 4.58 µM
TGI (SK-MEL-5 melanoma): 4.66 µM
TGI (SK-OV-3 ovarian): > 34.9 µM
TGI (SN12C renal): 5.23 µM
TGI (SNB-19 CNS): 21.5 µM
TGI (SNB-75 CNS): 4.17 µM
TGI (SR leukemia): > 100 µM
TGI (SW-620 colon): > 20.5 µM
TGI (T-47D breast): 4.3 µM
TGI (TK-10 renal): 18 µM
TGI (U251 CNS): 3.14 µM
TGI (UACC-257 melanoma): 6.73 µM
TGI (UACC-62 melanoma): 3.56 µM
TGI (UO-31 renal): 3.51 µM

O=c1ccn(COC(COCc2ccccc2)COCc2ccccc2)c(=O)[nH]1
TGI (A498 renal): > 100 µM
TGI (BT-549 breast): > 100 µM
TGI (CAKI-1 renal): > 100 µM
TGI (CCRF-CEM leukemia): > 100 µM
TGI (COLO 205 colon): > 100 µM
TGI (DU-145 prostate): > 100 µM
TGI (HCC-2998 colon): > 100 µM
TGI (HCT-116 colon): > 100 µM
TGI (HCT-15 colon): > 100 µM
TGI (HL-60(TB) leukemia): > 100 µM
TGI (HOP-62 NSCLC): > 100 µM
TGI (HOP-92 NSCLC): > 100 µM
TGI (HS 578T breast): > 100 µM
TGI (HT29 colon): > 100 µM
TGI (IGROV1 ovarian): > 100 µM
TGI (K-562 leukemia): > 100 µM
TGI (KM12 colon): > 100 µM
TGI (LOX IMVI melanoma): > 100 µM
TGI (M14 melanoma): > 100 µM
TGI (MALME-3M melanoma): > 100 µM
TGI (MCF7 breast): > 100 µM
TGI (MDA-MB-231 breast): > 100 µM
TGI (MDA-MB-435): > 100 µM
TGI (MDA-N): > 100 µM
TGI (MOLT-4 leukemia): > 100 µM
TGI (NCI-H226 lung): > 100 µM
TGI (NCI-H23 lung): > 100 µM
TGI (NCI-H460 lung): > 100 µM
TGI (NCI/ADR-RES ovarian): > 100 µM
TGI (OVCAR-3 ovarian): > 100 µM
TGI (OVCAR-4 ovarian): > 100 µM
TGI (OVCAR-5 ovarian): > 100 µM
TGI (OVCAR-8 ovarian): > 100 µM
TGI (PC-3 prostate): > 100 µM
TGI (RPMI-8226 leukemia): > 100 µM
TGI (RXF 393 renal): > 100 µM
TGI (SF-295 CNS): > 100 µM
TGI (SK-MEL-2 melanoma): > 100 µM
TGI (SK-MEL-28 melanoma): > 100 µM
TGI (SK-MEL-5 melanoma): > 100 µM
TGI (SK-OV-3 ovarian): > 100 µM
TGI (SN12C renal): > 100 µM
TGI (SNB-19 CNS): > 100 µM
TGI (SNB-75 CNS): > 100 µM
TGI (SR leukemia): > 100 µM
TGI (SW-620 colon): > 100 µM
TGI (T-47D breast): > 100 µM
TGI (TK-10 renal): > 100 µM
TGI (U251 CNS): > 100 µM
TGI (UACC-257 melanoma): > 100 µM
TGI (UACC-62 melanoma): > 100 µM
TGI (UO-31 renal): > 100 µM
